Laboratory results taken from patent publication US8354422B2, “Pyrimidine inhibitors of kinase activity” (Abbott Laboratories Inc., priority 2009, dated 2013).

target: T1, C-terminal GST-tagged, recombinant, human IGF-1R, amino acids 954-1367 (Homo sapiens, UniProt P08069); test: IGF-1R kinase activity, homogenous time-resolved fluorescence (HTRF) in vitro kinase assay; format: biochemical; conditions: IGF-1R kinase HTRF assay, ATP 50 μM, biotinylated peptide substrate 0.5 μM, 60 minutes at room temperature
T1 construct: human IGF-1R, amino acids 954-1367 expressed by baculovirus in Sf21 cells; GST (C); purchased Cell Signaling Technology; host or cells: baculovirus in Sf21 cells
In short: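 HTRF assay with baculovirus/Sf21-expressed enzyme, 50 μM ATP, 0.5 μM biotinylated peptide substrate, 2% DMSO, in HEPES pH 7.5 buffer with MgCl2, 2 mM MnCl2, BSA, DTT; 60 min at room temperature. EDTA-quenched, detected with streptavidin-APC and Eu-cryptate anti-phosphotyrosine mAb; 615/665 nm ratio used for IC50.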

T1 sequence (P08069 954-1367): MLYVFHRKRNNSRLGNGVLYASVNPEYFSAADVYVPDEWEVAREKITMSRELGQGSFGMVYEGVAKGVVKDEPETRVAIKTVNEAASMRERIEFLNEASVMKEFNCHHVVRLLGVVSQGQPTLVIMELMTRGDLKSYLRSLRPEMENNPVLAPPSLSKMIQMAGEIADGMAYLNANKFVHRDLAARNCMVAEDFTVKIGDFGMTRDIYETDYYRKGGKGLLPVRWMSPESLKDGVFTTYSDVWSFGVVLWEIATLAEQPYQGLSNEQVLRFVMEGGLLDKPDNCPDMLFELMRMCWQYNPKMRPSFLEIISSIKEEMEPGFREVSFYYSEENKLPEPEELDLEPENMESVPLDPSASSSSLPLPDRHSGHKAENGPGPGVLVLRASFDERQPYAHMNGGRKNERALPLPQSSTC

`CS(=O)(=O)c1cccc(Nc2nccc(-c3c(-c4ccc(OCc5ccccc5)cc4)nc4ccccn34)n2)c1` [Example 4, 4-{2-[4-(benzyloxy)phenyl]imidazo[1,2-a]pyridin-3-yl}-N-[3-(methylsulfonyl)phenyl]pyrimidin-2-amine] and `CS(=O)(=O)c1ccc(Nc2nccc(-c3c(-c4ccc(OCc5ccccc5)cc4)nc4ccccn34)n2)cc1` [Example 6, 4-{2-[4-(benzyloxy)phenyl]imidazo[1,2-a]pyridin-3-yl}-N-[4-(methylsulfonyl)phenyl]pyrimidin-2-amine] cannot be ordered by IC50: over 1 µM for the first, over 1 µM for the second.

`COc1cc(-c2nc3ccccn3c2-c2ccnc(Nc3ccc4c(c3)CN(C)CC4)n2)ccc1OCc1ccccc1` [Example 60, N-(4-{2-[4-(benzyloxy)-3-methoxyphenyl]imidazo[1,2-a]pyridin-3-yl}pyrimidin-2-yl)-2-methyl-1,2,3,4-tetrahydroisoquinolin-7-amine] and `COc1cc(N)ccc1Nc1nccc(-c2c(-c3ccc(OCc4ccccc4)c(OC)c3)nc3ccccn23)n1` [Example 46, N^1-(4-{2-[4-(benzyloxy)-3-methoxyphenyl]imidazo[1,2-a]pyridin-3-yl}pyrimidin-2-yl)-2-methoxybenzene-1,4-diamine] fall in the same range of IC50: 0.025 to 0.1 µM for the first, 0.025 to 0.1 µM for the second.

First: COc1ccc(NC(=O)CN(C)C)cc1Nc1nccc(-c2c(-c3ccc(OCc4ccccc4)c(OC)c3)nc3ccccn23)n1 [Example 71, N^1-{3-[(4-{2-[4-(benzyloxy)-3-methoxyphenyl]imidazo[1,2-a]pyridin-3-yl}pyrimidin-2-yl)amino]-4-methoxyphenyl}-N^2,N^2-dimethylglycinamide]
Second: COc1cc(NCC(=O)O)ccc1Nc1nccc(-c2c(-c3ccc(OCc4ccccc4)c(OC)c3)nc3ccccn23)n1 [Example 53, N-{4-[(4-{2-[4-(benzyloxy)-3-methoxyphenyl]imidazo[1,2-a]pyridin-3-yl}pyrimidin-2-yl)amino]-3-methoxyphenyl}glycine]
The IC50 of the first is lower: under 0.025 µM for the first, 0.101 to 0.5 µM for the second. The first is the more potent here.

First: COc1cc(N2CCC(N3CCN(C)CC3)CC2)ccc1Nc1nccc(-c2c(-c3ccc(OCc4ccccc4)cc3)nc3ccccn23)n1 [Example 13, 4-{2-[4-(benzyloxy)phenyl]imidazo[1,2-a]pyridin-3-yl}-N-{2-methoxy-4-[4-(4-methylpiperazin-1-yl)piperidin-1-yl]phenyl}pyrimidin-2-amine]
Second: COc1cc(Cl)ccc1Nc1nccc(-c2c(-c3ccc(OCc4ccccc4)cc3)nc3ccccn23)n1 [Example 22, 4-{2-[4-(benzyloxy)phenyl]imidazo[1,2-a]pyridin-3-yl}-N-(4-chloro-2-methoxyphenyl)pyrimidin-2-amine]
The IC50 of the first is lower: 0.101 to 0.5 µM for the first, over 1 µM for the second.

Compared with `COc1cc(-c2nc3ccccn3c2-c2ccnc(Nc3cnn(CCN4CCCCC4)c3)n2)ccc1OCc1ccccc1` [Example 54, 4-{2-[4-(benzyloxy)-3-methoxyphenyl]imidazo[1,2-a]pyridin-3-yl}-N-[1-(2-piperidin-1-ylethyl)-1H-pyrazol-4-yl]pyrimidin-2-amine], `COc1cc(-c2nc3ccccn3c2-c2ccnc(Nc3cnn(CCN4CCOCC4)c3)n2)ccc1OCc1ccccc1` [Example 55, 4-{2-[4-(benzyloxy)-3-methoxyphenyl]imidazo[1,2-a]pyridin-3-yl}-N-[1-(2-morpholin-4-ylethyl)-1H-pyrazol-4-yl]pyrimidin-2-amine] is lower in IC50: 0.101 to 0.5 µM for the first, 0.025 to 0.1 µM for the second. The second is the more potent here.

Compared with `CN(C)CCc1cccc(Nc2nccc(-c3c(-c4ccc(OCc5ccccc5)cc4)nn4ncccc34)n2)c1` [Example 76, 4-{2-[4-(benzyloxy)phenyl]pyrazolo[1,5-b]pyridazin-3-yl}-N-{3-[2-(dimethylamino)ethyl]phenyl}pyrimidin-2-amine], `CN(C)CCc1cccc(Nc2nccc(-c3c(-c4ccc(OCc5cccc(F)c5)cc4)nc4ccccn34)n2)c1` [Example 19, N-{3-[2-(dimethylamino)ethyl]phenyl}-4-(2-{4-[(3-fluorobenzyl)oxy]phenyl}imidazo[1,2-a]pyridin-3-yl)pyrimidin-2-amine] is higher in IC50: under 0.025 µM for the first, 0.101 to 0.5 µM for the second. The first is the more potent here.

First: COc1cc(-c2nc3ccccn3c2-c2ccnc(Nc3cccc(CCN(C)C)c3)n2)ccc1OCc1ccccc1 [Example 12, 4-{2-[4-(benzyloxy)-3-methoxyphenyl]imidazo[1,2-a]pyridin-3-yl}-N-{3-[2-(dimethylamino)ethyl]phenyl}pyrimidin-2-amine]
Second: COc1cc(-c2nc3ccccn3c2-c2ccnc(Nc3cccc(CCN(C)CCO)c3)n2)ccc1OCc1ccccc1 [Example 38, 2-[(2-{3-[(4-{2-[4-(benzyloxy)-3-methoxyphenyl]imidazo[1,2-a]pyridin-3-yl}pyrimidin-2-yl)amino]phenyl}ethyl)(methyl)amino]ethanol]
The IC50 of the first is higher: 0.101 to 0.5 µM for the first, 0.025 to 0.1 µM for the second. The second is the more potent here.

`OCCn1cc(Nc2nccc(-c3c(-c4ccc(OCc5ccccc5)cc4)nc4ccccn34)n2)cn1` [Example 27, 2-{4-[(4-{2-[4-(benzyloxy)phenyl]imidazo[1,2-a]pyridin-3-yl}pyrimidin-2-yl)amino]-1H-pyrazol-1-yl}ethanol] and `CCN(CCO)c1cccc(Nc2nccc(-c3c(-c4ccc(OCc5ccccc5)c(OC)c4)nc4ccccn34)n2)c1` [Example 31, 2-[{3-[(4-{2-[4-(benzyloxy)-3-methoxyphenyl]imidazo[1,2-a]pyridin-3-yl}pyrimidin-2-yl)amino]phenyl}(ethyl)amino]ethanol] fall in the same range of IC50: 0.101 to 0.5 µM for the first, 0.101 to 0.5 µM for the second.

First: COc1cc(N2CCC(N(C)C)CC2)ccc1Nc1nccc(-c2c(-c3ccc(OCc4ccccc4)cc3)nc3sccn23)n1 [Example 80, 4-{6-[4-(benzyloxy)phenyl]imidazo[2,1-b][1,3]thiazol-5-yl}-N-{4-[4-(dimethylamino)piperidin-1-yl]-2-methoxyphenyl}pyrimidin-2-amine]
Second: COc1cc(C2CCNCC2)ccc1Nc1nccc(-c2c(-c3ccc(OCc4ccccc4)c(OC)c3)nc3ccccn23)n1 [Example 57, 4-{2-[4-(benzyloxy)-3-methoxyphenyl]imidazo[1,2-a]pyridin-3-yl}-N-(2-methoxy-4-piperidin-4-ylphenyl)pyrimidin-2-amine]
The IC50 of the first is higher: 0.025 to 0.1 µM for the first, under 0.025 µM for the second. The second is the more potent here.
